Data reported in ChEMBL document CHEMBL1777688, “TRPV1 modulators: structure-activity relationships using a rational combinatorial approach” (Bioorg Med Chem Lett, 2011).

Tests used:
Format in all cases: cell-based
Details in all cases: Oocyte
[1] = target: Glutamate NMDA receptor; GRIN1/GRIN2A (Homo sapiens) (UniProt Q05586+Q12879); experiment: Blockade of human recombinant NR1/NR2A expressed in xenopus oocytes assessed as inhibition of L-glutamate/glycine-induced whole-cell current at 10 uM at holding potential of -60 mV by electrophysiological assay relative to control
[2] = target: Transient receptor potential cation channel subfamily V member 1 (Rattus norvegicus) (UniProt O35433); experiment: Blockade of rat recombinant TRPV1 expressed in xenopus oocytes assessed as inhibition of capsaicin-induced whole-cell current at 10 uM at holding potential of -60 mV by electrophysiological assay relative to control
Sequence of Transient receptor potential cation channel subfamily V member 1 (Rattus norvegicus) (O35433 whole entry): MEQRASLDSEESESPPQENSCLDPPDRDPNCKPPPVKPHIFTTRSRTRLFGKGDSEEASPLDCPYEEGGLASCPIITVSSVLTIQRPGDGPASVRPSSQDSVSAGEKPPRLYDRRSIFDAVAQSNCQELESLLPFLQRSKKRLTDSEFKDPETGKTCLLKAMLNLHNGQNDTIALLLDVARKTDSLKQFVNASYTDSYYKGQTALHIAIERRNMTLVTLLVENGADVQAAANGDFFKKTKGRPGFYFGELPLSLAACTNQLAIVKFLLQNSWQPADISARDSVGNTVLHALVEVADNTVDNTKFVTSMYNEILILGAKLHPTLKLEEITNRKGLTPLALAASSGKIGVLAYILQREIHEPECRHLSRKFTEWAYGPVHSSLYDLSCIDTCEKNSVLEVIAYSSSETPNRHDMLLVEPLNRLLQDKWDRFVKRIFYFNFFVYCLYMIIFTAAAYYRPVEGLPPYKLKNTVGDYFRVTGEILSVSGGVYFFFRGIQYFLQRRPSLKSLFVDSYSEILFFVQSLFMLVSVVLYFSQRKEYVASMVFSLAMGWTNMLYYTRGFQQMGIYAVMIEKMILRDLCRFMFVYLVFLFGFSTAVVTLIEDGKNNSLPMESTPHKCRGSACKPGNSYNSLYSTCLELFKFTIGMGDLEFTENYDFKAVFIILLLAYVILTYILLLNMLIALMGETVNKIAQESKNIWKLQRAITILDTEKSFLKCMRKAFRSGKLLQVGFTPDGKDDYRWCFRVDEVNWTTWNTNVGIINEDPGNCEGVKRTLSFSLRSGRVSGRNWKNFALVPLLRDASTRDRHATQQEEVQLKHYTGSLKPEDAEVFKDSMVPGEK

[3] = target: Transient receptor potential cation channel subfamily V member 1 (Rattus norvegicus) (UniProt O35433); experiment: Blockade of rat recombinant TRPV1 expressed in xenopus oocytes assessed as inhibition of capsaicin-induced whole-cell current at 1 uM at holding potential of -60 mV by electrophysiological assay relative to control

With NC(=O)[C@H](Cc1c(Sc2ccccc2[N+](=O)[O-])[nH]c2ccccc12)N1C(=O)N[C@@H](CCCN=C(N)N)C1=O the inhibition [1] was 20.2% and the inhibition [2] was 50.2%.
Work on CC(=O)N[C@@H](CCCN=C(N)N)C(=O)N[C@@H](Cc1c(Sc2ncccc2[N+](=O)[O-])[nH]c2ccccc12)C(N)=O yielded an inhibition [1] of 26.3% and an inhibition [2] of 23.9%.
In the case of NC(=O)[C@H](Cc1c(Sc2ccccc2[N+](=O)[O-])[nH]c2ccccc12)NC(=O)[C@@H](N)CCN=C(N1CCCC1)N1CCCC1, the inhibition [3] was 23.5%, the inhibition [1] was 13.9% and the inhibition [2] was 76.1%.
For NCCCC[C@@H]1NC(=O)N([C@@H](Cc2c(Sc3ccccc3[N+](=O)[O-])[nH]c3ccccc23)C(N)=O)C1=O, the inhibition [1] was 10.5% and the inhibition [2] was 15.4%.
Compound CC(=O)N[C@@H](CN=C(N1CCCC1)N1CCCC1)C(=O)N[C@@H](Cc1c(Sc2ccccc2[N+](=O)[O-])[nH]c2ccccc12)C(N)=O has an inhibition [1] of 30.3% and an inhibition [2] of 49.9%.
In the case of NC(=O)[C@H](Cc1c(Sc2ncccc2[N+](=O)[O-])[nH]c2ccccc12)N1C(=O)N[C@@H](CCCN=C(N)N)C1=O, the inhibition [1] was 24.2% and the inhibition [2] was 54.3%.
In the case of CC(=O)N[C@@H](CCCCN=C(N1CCCC1)N1CCCC1)C(=O)N[C@@H](Cc1c(Sc2ccccc2[N+](=O)[O-])[nH]c2ccccc12)C(N)=O, the inhibition [1] was 6.4% and the inhibition [2] was 44%.
NC(=O)[C@H](Cc1c(Sc2ncccc2[N+](=O)[O-])[nH]c2ccccc12)NC(=O)[C@@H](N)CCCN=C(N)N was tested, and the inhibition [1] was 20.6% and the inhibition [2] was 44.8%.
In the case of NC(=O)[C@H](Cc1c(Sc2ncccc2[N+](=O)[O-])[nH]c2ccccc12)N1C(=O)N[C@@H](CCCCN=C(N2CCCC2)N2CCCC2)C1=O, the inhibition [1] was 12.9% and the inhibition [2] was 52.5%.
CC(=O)N[C@@H](CCCCN)C(=O)N[C@@H](Cc1c(Sc2ccccc2[N+](=O)[O-])[nH]c2ccccc12)C(N)=O was tested, and the inhibition [1] was 15.4% and the inhibition [2] was 14.3%.
Work on CC(=O)N[C@@H](CN)C(=O)N[C@@H](Cc1c(Sc2ccccc2[N+](=O)[O-])[nH]c2ccccc12)C(N)=O yielded an inhibition [1] of 27% and an inhibition [2] of 14.6%.
With C[N+](C)(C)CCCC[C@@H]1NC(=O)N([C@@H](Cc2c(Sc3ncccc3[N+](=O)[O-])[nH]c3ccccc23)C(N)=O)C1=O the inhibition [1] was 20.6% and the inhibition [2] was 19.9%.
NC(=O)[C@H](Cc1c(Sc2ccccc2[N+](=O)[O-])[nH]c2ccccc12)N1C(=O)N[C@@H](CCN=C(N2CCCC2)N2CCCC2)C1=O was tested, and the inhibition [1] was 12% and the inhibition [2] was 56.3%.
C[N+](C)(C)CCCC[C@H](N)C(=O)N[C@@H](Cc1c(Sc2ccccc2[N+](=O)[O-])[nH]c2ccccc12)C(N)=O was tested, and the inhibition [1] was 5.5% and the inhibition [2] was 36.7%.
CC(=O)N[C@@H](CCN)C(=O)N[C@@H](Cc1c(Sc2ccccc2[N+](=O)[O-])[nH]c2ccccc12)C(N)=O was tested, and the inhibition [1] was 27.2% and the inhibition [2] was 27.6%.
Compound CC(=O)N[C@@H](CCCCN=C(N1CCCC1)N1CCCC1)C(=O)N[C@@H](Cc1c(Sc2ncccc2[N+](=O)[O-])[nH]c2ccccc12)C(N)=O has an inhibition [1] of 30.2% and an inhibition [2] of 16.6%.
NCCCC[C@H](N)C(=O)N[C@@H](Cc1c(Sc2ccccc2[N+](=O)[O-])[nH]c2ccccc12)C(N)=O was tested, and the inhibition [1] was 13.5% and the inhibition [2] was 26.3%.
In the case of CC(=O)N[C@@H](CCCCN)C(=O)N[C@@H](Cc1c(Sc2ncccc2[N+](=O)[O-])[nH]c2ccccc12)C(N)=O, the inhibition [1] was 13.6% and the inhibition [2] was 12.7%.
Compound NCC[C@@H]1NC(=O)N([C@@H](Cc2c(Sc3ccccc3[N+](=O)[O-])[nH]c3ccccc23)C(N)=O)C1=O has an inhibition [1] of 16% and an inhibition [2] of 11%.
With NCC[C@H](N)C(=O)N[C@@H](Cc1c(Sc2ccccc2[N+](=O)[O-])[nH]c2ccccc12)C(N)=O the inhibition [1] was 29.7% and the inhibition [2] was 20.6%.
For CN(C)C(=NCCCC[C@@H]1NC(=O)N([C@@H](Cc2c(Sc3ncccc3[N+](=O)[O-])[nH]c3ccccc23)C(N)=O)C1=O)N(C)C, the inhibition [1] was 10.8% and the inhibition [2] was 40.9%.
Work on NC(=O)[C@H](Cc1c(Sc2ccccc2[N+](=O)[O-])[nH]c2ccccc12)NC(=O)[C@@H](N)CCCCN=C(N1CCCC1)N1CCCC1 yielded an inhibition [1] of 8.3% and an inhibition [2] of 55.8%.
Work on NC(=O)[C@H](Cc1c(Sc2ccccc2[N+](=O)[O-])[nH]c2ccccc12)NC(=O)[C@H](CCCCN=C(N1CCCC1)N1CCCC1)N=C(N1CCCC1)N1CCCC1 yielded an inhibition [3] of 27.3%, an inhibition [1] of 6.8% and an inhibition [2] of 97.2%.
With NC(=O)[C@H](Cc1c(Sc2ccccc2[N+](=O)[O-])[nH]c2ccccc12)N1C(=O)N[C@@H](CN=C(N2CCCC2)N2CCCC2)C1=O the inhibition [1] was 43.7% and the inhibition [2] was 51.3%.
CC(=O)N[C@@H](CCCCN=C(N(C)C)N(C)C)C(=O)N[C@@H](Cc1c(Sc2ncccc2[N+](=O)[O-])[nH]c2ccccc12)C(N)=O showed an inhibition [1] of 20.6% and an inhibition [2] of 12%.
CN(C)C(=NCCCC[C@@H]1NC(=O)N([C@@H](Cc2c(Sc3ccccc3[N+](=O)[O-])[nH]c3ccccc23)C(N)=O)C1=O)N(C)C was tested, and the inhibition [1] was 9.3% and the inhibition [2] was 13%.
Compound NCCCC[C@H](N)C(=O)N[C@@H](Cc1c(Sc2ncccc2[N+](=O)[O-])[nH]c2ccccc12)C(N)=O has an inhibition [1] of 23.6% and an inhibition [2] of 17%.
NC(=O)[C@H](Cc1c(Sc2ccccc2[N+](=O)[O-])[nH]c2ccccc12)N1C(=O)N[C@@H](CCCCN=C(N2CCCC2)N2CCCC2)C1=O gave an inhibition [1] of 10.7% and an inhibition [2] of 60.4%.
CC(=O)N[C@@H](CCN=C(N1CCCC1)N1CCCC1)C(=O)N[C@@H](Cc1c(Sc2ccccc2[N+](=O)[O-])[nH]c2ccccc12)C(N)=O was tested, and the inhibition [1] was 9.6% and the inhibition [2] was 42.4%.
NC[C@@H]1NC(=O)N([C@@H](Cc2c(Sc3ccccc3[N+](=O)[O-])[nH]c3ccccc23)C(N)=O)C1=O was tested, and the inhibition [1] was 18.4% and the inhibition [2] was 29.9%.
CN(C)C(=NCCCC[C@H](N)C(=O)N[C@@H](Cc1c(Sc2ccccc2[N+](=O)[O-])[nH]c2ccccc12)C(N)=O)N(C)C showed an inhibition [3] of 21.1%, an inhibition [1] of 69.7% and an inhibition [2] of 49.7%.
Work on NC[C@H](N)C(=O)N[C@@H](Cc1c(Sc2ccccc2[N+](=O)[O-])[nH]c2ccccc12)C(N)=O yielded an inhibition [1] of 24% and an inhibition [2] of 39.3%.
CC(=O)N[C@@H](CCCC[N+](C)(C)C)C(=O)N[C@@H](Cc1c(Sc2ccccc2[N+](=O)[O-])[nH]c2ccccc12)C(N)=O was tested, and the inhibition [1] was 32.2% and the inhibition [2] was 29%.
CC(=O)N[C@@H](CCCCN=C(N(C)C)N(C)C)C(=O)N[C@@H](Cc1c(Sc2ccccc2[N+](=O)[O-])[nH]c2ccccc12)C(N)=O showed an inhibition [1] of 6.1% and an inhibition [2] of 19.9%.
For NC(=O)[C@H](Cc1c(Sc2ccccc2[N+](=O)[O-])[nH]c2ccccc12)NC(=O)[C@@H](N)CCCN=C(N)N, the inhibition [3] was 18.7%, the inhibition [1] was 7.7% and the inhibition [2] was 62.8%.
Work on CC(=O)N[C@@H](CCCN=C(N)N)C(=O)N[C@@H](Cc1c(Sc2ccccc2[N+](=O)[O-])[nH]c2ccccc12)C(N)=O yielded an inhibition [1] of 25.8% and an inhibition [2] of 29.2%.
C[N+](C)(C)CCCC[C@@H]1NC(=O)N([C@@H](Cc2c(Sc3ccccc3[N+](=O)[O-])[nH]c3ccccc23)C(N)=O)C1=O showed an inhibition [3] of 17.4%, an inhibition [1] of 9.2% and an inhibition [2] of 66.5%.
NCCCC[C@@H]1NC(=O)N([C@@H](Cc2c(Sc3ncccc3[N+](=O)[O-])[nH]c3ccccc23)C(N)=O)C1=O gave an inhibition [1] of 26.8% and an inhibition [2] of 24.6%.
